Structures are written as SMILES. Like-named read-outs stand apart in the source and are kept apart here.

These results are taken from patent publication US4401827A, “Novel acyl-derivatives of carnitine and process for their preparation” (Sigma-Tau, priority 1978, dated 1983).

Data set [1] deals with plasma cholesterol, triglycerides and lipoproteins in rat. Nature of the data set: plasma cholesterol, triglycerides and lipoproteins in rat treated with olive oil. It counts as in vivo. As to conditions: for Lipoproteins, VLDL / Lipoproteins, HDL / Lipoproteins, LDL / cholesterol / triglycerides: olive oil 15 ml kg^-1 orally, compound ip, mean ± SEM, N = 8; for Lipoproteins, VLDL: oil control 15.84 ± 1.53; for Lipoproteins, HDL: oil control 24.18 ± 2.15; for Lipoproteins, LDL: oil control 57.38 ± 2.25; for cholesterol: oil control 88.33 ± 2.96; for triglycerides: oil control 213.66 ± 28.68. Here is the method:
In the rats the lipoproteic pattern altered due to an oil administration by gavage, was restored after a single treatment with d,l dipropyl ACAR; d,l ethyl exanoyl CAR; d,l 3 bromopropionyl CAR and d,l pyruvyl CAR.
The effect of some acyl derivatives of formula (I) on plasma cholesterol,
triglycerides and lipoproteins in rat
treated with olive oil, 15 ml kg^-1 orally. Mean Values ± SEM
Student "t" test .quadrature., Δ and indicate respectively a non
significant difference, a P ≤ 1% and 1%.

The nature of data set [2]: acute toxicity (tolerance) i.p. in mice, Weil method. As to conditions: mouse, in vivo, ip, Weil method (N = 5, K = 4). The text has this:
The tolerance of the Acyl-carnitines of the formula (I), as well as their salts administered by intraperitoneal route was investigated in mice using the Weil Method (1).
LD50, mg kg^-1 i.p. in mice,
of some acyl derivatives of formula (1).
Weil method (N = 5, K = 4)

The subject of data set [3] is arrhythmia induced by Aconitine in mice. The data set is described as follows: arrhythmia induced by Aconitine in mice. In kind it is in vivo. The note with it: for change in vivo at 300 mg/kg / change in vivo at 150 mg/kg / change in vivo at 40 mg/kg: Mus musculus, iv; for antiarrhythmic activity (in words): Aconitine, mice. Here is the method:
The antiarrhythmic effect of the compounds was also investigated in mice according to the P. W. Nwangwu, T. Holcslow procedure (4). Using Aconitine (5 mg/ml) as arrhythmogenic agent, the changes in the cardiac rhythm of the animals were recorded and the onset time of initial arrhythmia and/or of ventricular tachycardia were used as End point.
Antiarrhythmic agents display an increase in the latency time of initial ECG change.
(4) P. W. Nvangvu, T. L. Holcslow, Arch. Int. Pharmacodyn. 229, 219 (1977)
on the arrhythmia induced by Aconitine (5 γ/ml) in mice.
% increase of the time to onset of initial cardiac arrythmia

The next data set concerns rat's ventricle strip. Nature of the data set: antiarrhythmic effect, isolated rat ventricle strip test. As to conditions: for inhibition at 1 µM / activation at 1 µM: Rattus norvegicus, concentration 1·10^-6 M; for inhibition at 1 µM: decrease; for activation at 1 µM: increase; for antiarrhythmic properties (in words): isolated rat ventricle method. The text has this:
(2) M. Libonati and G. Segre, Archivio Italiano di Scienze Farmacologiche. Serie XIII, Vol. X, pag. 3, (1960)
effect of some acyl derivatives (concentration 1 · 10^-6
of the formula (1) on the rat's ventricle strip test.
% variation versus basal value.

In the next data set the test system is rabbit hearts. The data set is described as follows: cardiokinetic effect on isolated rabbit heart (Langendorff) after anoxia. The note with it: equal concentrations in perfusion fluid, Student's t test versus controls. The procedure: The cardiokinetic effect on isolated heart was also investigated as follows. Rabbit hearts isolated by the Langendorff method were perfused with oxygenized ringer solution at 38.2° C. The isometric contractions, electrocardiogram and coronary flow were recorded using a "Battaglia-Rangoni" polygraph. By removing the oxygen from the perfusion fluid, metabolic damage was induced in the cardiac muscle, up to an 80% reduction in the cardiac contractile force.
Under these conditions of prolonged anoxia the aerobic glycolysis of the myocardium is slowed down, accompanied by the storage of acid catabolites due to both the accumulation of pyruvic acid and its conversion to lactic acid which cannot be utilized because of the depression of pyridine enzymes, such as LDH (lactodehydrogenase). This has repercussions on the anaerobic glycolysis affecting an ever increasing number of enzymes, accompanied by a progressive and increasingly critical exhaustion of the myocardium. Thus a whole series of cardiac muscle fatigue levels occurs which can be observed by the behavior of the examined parameters, namely the contractile force, coronary flow, heart rate and cardiac rhythm. As soon as the contractile force was reduced by 80%, the perfusion fluid was once again oxygenized either without adding other compounds (controls) or with the addition of the compounds under examination.
Table 2 below gives the percentage values of the contractile force of the heart, showing a positive inotropic effect, calculated after 10 minutes from the interruption of the anoxic period (myocardial restoration).
of some acyl derivatives of formula (I) on the contractile
force of rabbit's heart. (Details are given in the text)

For another data set, the system named is F.F.A. plasma levels. The data set is described as follows: plasma free fatty acids in 17-hrs fasted rats. In kind it is in vivo. As to conditions: single i.p. 500 mg kg^-1, 17-hrs fasted rats. The procedure:
In 17-hrs fasted rats the F.F.A. (fatty-free acids) splasms levels were reduced by a single i.p. administration with 500 mg kg^-s of d,l dipropyl ACAR; l dipropyl ACAR (ACAR=acetylcarnitine); d,l exanoyl CAR (CAR=carnitine) and d,l pyruvyl CAR.
The decrease, compared with untreated animals, was -35%, -29%, -41% and -65% respectively.

The mark [4] stands for this setting: read-out: latency time increase % of controls, arrhythmias.
Setting [5] is: read-out: latency time increase % of controls, tachycardia.
The mark [6] stands for this setting: read-out: maximed frequency (- %), % variation versus basal value.
Where [7] appears, read: read-out: whole excitability (- %), % variation versus basal value.
Setting [8] is: read-out: refractory period (+ %), % variation versus basal value.
[9] abbreviates: read-out: rheobase (+ %), % variation versus basal value.

In the case of `CCCCC(CC)C(=O)OC(CC(=O)[O-])C[N+](C)(C)C` (racemic) [d,l 2-ethylhexanoyl CAR], the “lipoproteic pattern altered due to oil administration (in words)” value (“lipoproteic pattern altered due” for short) in data set [1] (rats, single treatment) was “restored”. The molecule also showed an LD50 in data set [2] of 950 mg/kg. Moreover, the change in vivo at 300 mg/kg in data set [3] (setting [4]) was 20%; in data set [3] (setting [5]) it was 10%. Further, the inhibition at 1 µM in the data set with rat's ventricle strip (setting [6]) is 25.5%; in the data set on rat's ventricle strip (setting [7]), 40.3%. Further, the activation at 1 µM is 22.8% in the data set with rat's ventricle strip (setting [8]) and 21.8% with rat's ventricle strip (setting [9]).

Regarding `C[N+](C)(C)CC(CC(=O)[O-])OC(=O)CCBr` (racemic) [d,l 3-Br--propionyl CAR], in data set [1], the “Lipoproteins, VLDL” value is given as 11.22 ± 1.22%; the “Lipoproteins, HDL” value is reported as 30.45 ± 2.87%; the “Lipoproteins, LDL” value is reported as 51.26 ± 2.49%; the cholesterol is 76.18 ± 3.02 mg/100 ml. The same molecule displayed a triglycerides in data set [1] of 123.48 ± 12.16 mg/100 ml. The “lipoproteic pattern altered due” value in data set [1] (rats, single treatment) is “restored”. The LD50 in data set [2] came out at 950 mg/kg. Besides, in data set [3] (setting [4]), the change in vivo at 150 mg/kg stood at 20%. In data set [3] (setting [5]), the change in vivo at 150 mg/kg turned out to be 10%. In addition, the inhibition at 1 µM in the data set on rat's ventricle strip (setting [6]) was determined as 17.3%. Besides, the inhibition at 1 µM in the data set on rat's ventricle strip (setting [7]) worked out at 39.7%. Also, in the data set on rat's ventricle strip (setting [8]), the activation at 1 µM is 40.2%. For the same molecule, in the data set on rat's ventricle strip (setting [9]), the activation at 1 µM is 26.1%.

Take `C[N+](C)(C)CC(CC(=O)[O-])OC(=O)C=Cc1ccccc1` (racemic) [d,l cinnamoyl CAR]: the “positive inotropic effect (in words)” value in the data set with rabbit hearts is reported as “greater positive inotropic effect than that of the other compounds under examination”. In addition, the LD50 in data set [2] turned out to be 1120 mg/kg. Further, the change in vivo at 150 mg/kg in data set [3] (setting [4]) worked out at 20%; in data set [3] (setting [5]), 8%. The inhibition at 1 µM in the data set with rat's ventricle strip (setting [6]) came out at 29.8%; with rat's ventricle strip (setting [7]) it was 75.3%. Also, the activation at 1 µM worked out at 40.1% with rat's ventricle strip (setting [8]) and 49.6% in the data set on rat's ventricle strip (setting [9]).

For `CCCC(CCC)C(=O)OC(CC(=O)[O-])C[N+](C)(C)C` (racemic) [d,l dipropyl ACAR], in data set [1], the “Lipoproteins, VLDL” value stood at 13.26 ± 2.03%; the “Lipoproteins, HDL” value was found to be 28.13 ± 3.27%; the “Lipoproteins, LDL” value came out at 50.12 ± 2.08%; the cholesterol turned out to be 75.15 ± 3.11 mg/100 ml. The molecule also had a triglycerides in data set [1] of 121.50 ± 11.13 mg/100 ml. In data set [1] (rats, single treatment), the “lipoproteic pattern altered due” value is recorded as “restored”. Besides, in data set [2], the LD50 was found to be 1700 mg/kg. Besides, the “decrease of F.F.A. plasma levels compared with untreated animals” value (“decrease of F.F.A. plasma levels” below) in the data set on F.F.A. plasma levels was -35%. For the same molecule, in data set [3] (setting [4]), the change in vivo at 150 mg/kg worked out at 65%. Besides, the change in vivo at 150 mg/kg in data set [3] (setting [5]) turned out to be 55%. In the data set with rat's ventricle strip (setting [6]), the inhibition at 1 µM was determined as 23.2%. Further, in the data set on rat's ventricle strip (setting [7]), the inhibition at 1 µM worked out at 50.6%. The activation at 1 µM with rat's ventricle strip (setting [8]) came to 34.3%. Also, the activation at 1 µM with rat's ventricle strip (setting [9]) was 24.2%.

As for `CC(=O)C(=O)OC(CC(=O)[O-])C[N+](C)(C)C` (racemic) [d,l pyruvyl CAR], the “positive inotropic effect (in words)” value in the data set with rabbit hearts is “greater positive inotropic effect than that of the other compounds under examination”. In data set [1], the “Lipoproteins, VLDL” value stood at 10.15 ± 1.03%; the “Lipoproteins, HDL” value turned out to be 33.26 ± 2.17%; the “Lipoproteins, LDL” value worked out at 50.15 ± 2.33%; the cholesterol was found to be 70.26 ± 2.74 mg/100 ml. The same molecule registered a triglycerides in data set [1] of 85.14 ± 7.22 mg/100 ml. Also, in data set [1] (rats, single treatment), the “increase of HDL and decrease of LDL and VLDL (in words)” value was “most marked effect”; the “lipoproteic pattern altered due” value is listed as “restored”; the “triglycerides and cholesterol plasma levels increased after oil (in words)” value is “active against the triglycerides and cholesterol plasma levels”. For the same molecule, the LD50 in data set [2] came to 3900 mg/kg. For the same molecule, in the data set on F.F.A. plasma levels, the “decrease of F.F.A. plasma levels” value is -65%. In data set [3], the “antiarrhythmic activity (in words)” value was “markedly exhibited”. Besides, in data set [3] (setting [4]), the change in vivo at 40 mg/kg came out at 80%. Also, in data set [3] (setting [5]), the change in vivo at 40 mg/kg came to 60%. Moreover, in the data set on rat's ventricle strip (setting [6]), the inhibition at 1 µM worked out at 80.2%. Moreover, in the data set on rat's ventricle strip (setting [7]), the inhibition at 1 µM was found to be 95.5%. Also, the activation at 1 µM with rat's ventricle strip (setting [8]) is 50.2%. Further, in the data set on rat's ventricle strip (setting [9]), the activation at 1 µM was 48.2%. Further, the “antiarrhythmic properties (in words)” value in the data set with rat's ventricle strip is “most clear out antiarrhythmic properties”.

Regarding `C[N+](C)(C)CC(CC(=O)[O-])OC(=O)CCBr` (centres unmarked) [bromopropionyl], the “positive inotropic effect (in words)” value with rabbit hearts is given as “greater positive inotropic effect than that of the other compounds under examination”.

Regarding `CCCCCC(=O)OC(CC(=O)[O-])C[N+](C)(C)C` (centres unmarked) [d,l exanoyl CAR], in the data set with F.F.A. plasma levels, the “decrease of F.F.A. plasma levels” value is listed as -41%.

As for `CCCC(CCC)C(=O)OC(CC(=O)[O-])C[N+](C)(C)C` (centres unmarked) [dipropyl acetyl], the “positive inotropic effect (in words)” value in the data set on rabbit hearts is reported as “greater positive inotropic effect than that of the other compounds under examination”. Further, the “antiarrhythmic activity (in words)” value in data set [3] is “markedly exhibited”. Besides, the “antiarrhythmic properties (in words)” value with rat's ventricle strip is “most clear out antiarrhythmic properties”.

Regarding `CCCC(CCC)C(=O)O[C@H](CC(=O)[O-])C[N+](C)(C)C` [l dipropyl ACAR], the LD50 in data set [2] stood at 294 mg/kg. Besides, the “decrease of F.F.A. plasma levels” value with F.F.A. plasma levels is recorded as -29%. The change in vivo at 40 mg/kg in data set [3] (setting [4]) was found to be 60%; in data set [3] (setting [5]), 40%. The inhibition at 1 µM in the data set on rat's ventricle strip (setting [6]) came out at 25.3%; with rat's ventricle strip (setting [7]), 58.2%. For the same molecule, the activation at 1 µM in the data set on rat's ventricle strip (setting [8]) was 39.1%; with rat's ventricle strip (setting [9]) it was 55.1%.

As to `CC(C)(C)C(=O)OC(CC(=O)[O-])C[N+](C)(C)C` (centres unmarked) [pivaloyl], the “positive inotropic effect (in words)” value in the data set on rabbit hearts is reported as “greater positive inotropic effect than that of the other compounds under examination”. The “antiarrhythmic properties (in words)” value in the data set with rat's ventricle strip is given as “most clear out antiarrhythmic properties”.

The term LD50 denotes the dose expected to kill half of the subjects tested.
